Consider 1 compound from US20230365577A1, “Photodynamic Therapy and Diagnosis” (RMW CHO Group Limited, priority 2020, published 2023).

Data set [1] concerns ID8 murine ovarian cancer cells. The data set is described as follows: Tumour localisation and retention, model 2 (intraperitoneal ID8 metastatic disease). The format is in vivo, C57BL/6 wild type mice. How it is done: Model 2 used C57BL/6 wild type mice implanted intraperitoneally with 1×10^6 ID8 murine ovarian cancer cells. Following a 4 week incubation (at which point metastatic peritoneal disease with macroscopically visible tumour deposits was established), mice received compound 6 by either oral gavage (ORAL: 2.5 mg/kg), intravenous injection (IV: 1.0 mg/kg), or intraperitoneal injection (IP: 1.0 mg/kg). Quantitative imaging was performed as above; however, due to the disseminated nature of ovarian cancer, imaging was performed at autopsy, using blue light (400 nm) illumination to visualise red fluorescence associated with compound 6 in tumour deposits.

Data set [2] has as its system HH. The experiment in a line: Cytotoxicity, pan-cancer panel. The format is cell-based. The note with it: T cell lymphoma. How it is done: (§1) To test for inherent cytotoxicity (i.e. “dark toxicity”) of the phyllochlorin analogue the culture media was replaced after 24 hours with fresh media containing 10% (v/v) AlamarBlue Cell Viability Reagent (ThermoFisher) and cells incubated at 37° C. for 6 hours. Untreated cells were used as a control. Fluorescence (Ex 555 nm/Em 596 nm) was measured using a Cytation 3 Multimode Plate Reader (Biotek), and cytotoxicity assessed according to the % viable cells remaining. All measurements were made in quadruplicate.
(§2) The activity of phyllochlorin analogues against multiple cancer cell types was assessed as above, using compounds 3 and 6 as examples.

Data set [3] relates to HEK293. The experiment in a line: Cytotoxicity, pan-cancer panel. The note with it: HEK293, embryonic kidney. It is filed as cell-based. How it is done: as §1, §2
For data set [4], the system named is B16F10. The experiment in a line: Cytotoxicity, pan-cancer panel. It is filed as cell-based. The note with it: B16F10, melanoma. Here is the method:
as §1, §2

The subject of data set [5] is A549. The data set is described as follows: Cytotoxicity, pan-cancer panel. The format is cell-based. The note with it: A549, lung adenocarcinoma. How it is done:
as §1, §2

For data set [6], the system named is MDA-MB-468. The data set is described as follows: Cytotoxicity, pan-cancer panel. The format is cell-based. The note with it: MDA-MB-468, breast adenocarcinoma (triple negative). Here is the method:
as §1, §2

For data set [7], the system named is LP9. The data set is described as follows: Cytotoxicity, pan-cancer panel. Conditions: LP9, immortalised mesothelial cells. It is filed as cell-based. How it is done: as §1, §2
The subject of data set [8] is DLD-1. The data set is described as follows: Cytotoxicity, pan-cancer panel. The format is cell-based. The note with it: DLD-1, colorectal adenocarcinoma. Here is the method:
as §1, §2

The subject of data set [9] is HH. The data set is described as follows: Phototoxicity, pan-cancer panel. It is filed as cell-based. Conditions: Homo sapiens, light or radiation study, T cell lymphoma. How it is done:
(§3) To test for phototoxicity, cells incubated with phyllochlorin analogues (0-10 μM in DMSO) had culture media replaced after 24 hours (as above) and were then exposed to a 652 nm laser (Invion) with laser density at 50 mW/cm^2 for 5 mins (total 15 J/cm^2). Following activation, cells were cultured for a further 24 hours. Media was then replaced with fresh media containing AlamarBlue, and % viable cells remaining assessed as above. Controls included cells treated with phyllochlorin analogues but not activated by laser light; cells without phyllochlorin analogue treatment but with laser light; and untreated controls. All measurements were made in quadruplicate.
as §2

In data set [10] the test system is HEK293. The data set is described as follows: Phototoxicity, pan-cancer panel. It is filed as cell-based. The note with it: Homo sapiens, light or radiation study; HEK293, embryonic kidney. Here is the method:
as §3, §2

The subject of data set [11] is B16F10. The data set is described as follows: Phototoxicity, pan-cancer panel. It is filed as cell-based. The note with it: Mus musculus, B16-F10, light or radiation study; B16F10, melanoma. Here is the method:
as §3, §2

Data set [12] deals with A549. The experiment in a line: Phototoxicity, pan-cancer panel. It is filed as cell-based. The note with it: Homo sapiens, light or radiation study; A549, lung adenocarcinoma. Here is the method:
as §3, §2

The subject of data set [13] is MDA-MB-468. The data set is described as follows: Phototoxicity, pan-cancer panel. The format is cell-based. Conditions: Homo sapiens, light or radiation study; MDA-MB-468, breast adenocarcinoma (triple negative). Here is the method: as §3, §2
Data set [14] relates to LP9. The data set is described as follows: Phototoxicity, pan-cancer panel. The format is cell-based. The note with it: light or radiation study; LP9, immortalised mesothelial cells. How it is done:
as §3, §2

Data set [15] concerns DLD-1. The experiment in a line: Phototoxicity, pan-cancer panel. The format is cell-based. The note with it: Homo sapiens, light or radiation study; DLD-1, colorectal adenocarcinoma. How it is done: as §3, §2
Data set [16] relates to SKOV3 ovarian cancer cells. The data set is described as follows: Inherent cytotoxicity (dark toxicity) in SKOV3 cells (AlamarBlue viability). Conditions: human, 24 h. It is filed as cell-based, Human. On the technique in general: Resazurin is reduced to fluorescent resorufin, in cell work by metabolically active cells.
The subject of data set [17] is SKOV3 ovarian cancer cells. The experiment in a line: Phototoxicity in SKOV3 cells (652 nm laser, AlamarBlue viability). The format is cell-based, Human. The note with it: for IC90: Homo sapiens, SK-OV-3, light or radiation study. Put shortly:
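SKOV3 cells were loaded for 24 h with photosensitizer (0–10 μM in DMSO) in medium containing 10% Kollidon-12. After a media change they were irradiated at 652 nm, 50 mW/cm^2 for 5 min (15 J/cm^2), cultured a further 24 h, and viability was read by AlamarBlue in quadruplicate. Phototoxicity IC90 and dark-toxicity IC10 came from variable-slope normalized dose–response fits.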

Data set [18] is described as follows: Singlet oxygen (1O2) production rate. The format is physicochemical. The source says: The production of singlet oxygen (^1O2), cellular phototoxicity and light-independent cytotoxicity (“dark toxicity”) of a number of phyllochlorin analogues were compared against chlorin e4 disodium and Talaporfin sodium (mono-L-aspartyl chlorin e6), the active ingredient of Laserphyrin™.

Like-named read-outs stand apart in the source and are kept apart here.

Usually IC90 stands for the concentration at which the effect reaches the 90% level. On to `C=Cc1c(C)c2cc3nc(c(C)c4cc(C)c(cc5nc(cc1[nH]2)C(C)=C5CC)[nH]4)[C@@H](CCC(=O)N(C)CCCS[C@@H]1O[C@H](CO)[C@@H](O)[C@H](O)[C@H]1O)[C@@H]3C` [Compound 6, 3-((7S,8S)-18-ethyl-2,5,8,12,17-pentamethyl-13-vinyl-7H,8H-porphyrin-7-yl)-N-methyl-N-(3-(((2S,3R,4S,5S,6R)-3,4,5-trihydroxy-6-(hydroxymethyl)tetrahydro-2H-pyran-2-yl)thio)propyl)propanamide], for which, in data set [1] (IP 1.0 mg/kg), the “Localisation into metastatic nodules” value is “rapid and highly selective localisation”. Also, the “Retention in tumour following injection” value in data set [1] (IV 1.0 mg/kg) was “at least 24 hours”. Also, the “Time of peak tumour distribution” value in data set [1] (IV 1.0 mg/kg) came out at 4 h. In addition, the “Cytotoxicity IC10” value with HH [2] turned out to be 10250 nM; in the data set on HEK293 [3] it was 8160 nM; in the data set on B16F10 [4], 22850 nM; in the data set on A549 [5], 29520 nM; in the data set with MDA-MB-468 [6], 13250 nM; in the data set with LP9 [7], 19630 nM. In addition, the “Cytotoxicity IC10” value was determined as 9200 nM in the data set on DLD-1 [8] and 9490 nM in [16]. For the same compound, the IC90 with HH [9] was determined as 30 nM; with HEK293 [10], 200 nM; with B16F10 [11] it was 640 nM; in the data set with A549 [12], 140 nM; in the data set on MDA-MB-468 [13] it was 70 nM; in the data set with LP9 [14], 30 nM. Moreover, the IC90 was 330 nM in the data set on DLD-1 [15]; 190 nM in data set [17] (SKOV3, ovarian clear cell (Table 2), read-out: Phototoxicity IC90); 60 nM in [17] (SKOV3, 24 h uptake, 652 nm laser 50 mW/cm2 5 mins (15 J/cm2), viability 24 h later, read-out: Cellular Toxicity: Phototoxicity IC90); below 100 nM in data set [17] (SKOV3, read-out: Phototoxicity apparent IC90). In addition, in [16], the “Cellular Toxicity: Dark toxicity IC10” value was determined as 9490 nM. Further, the “Fold increase in cellular phototoxicity compared to compound 2” value in [17] (SKOV3, IC90) is on record as “approximately 4 fold”. Further, the “Singlet Oxygen Production (slope) 1O2” value in data set [18] came out at 1700.0.
